{"source": "patent US9702005B2", "about": "“Hepatitis B viral variants with reduced susceptibility to nucleoside analogs and uses thereof” (priority 2002, dated 2017)", "key": {"HBV [1]": {"tested_on": "HBV", "test": "Hepatitis B viral DNA levels in patients on treatment (capture hybridization assay)", "format": "in vivo, human", "conditions": "for HBV DNA copies/ml: open label ADV", "experimental": "(§1) Patient A, a person was initially referred for evaluation of thrombocytopenia and hepatosplenomegaly. At this time the patient had abnormal LFT's (ALT 67 U/L, normal <55) and the HBV DNA was 61 pg/ml (231 days prior to the start of treatment). The patient was HBsAg and HBeAg positive. The ALT's fluctuated between 50-70 IU/L from (−231 to −35 days pretreatment). ADV was commenced on Day 0 in a clinical trial on 30 mg/day. HBV DNA levels were reduced with ADV treatment. The ADV treatment was reduced to 10 mg/day (144 days post-treatment). There was a problem with the randomization treatment protocol. The patient was on antiviral treatment for 1 month only during the second year of the treatment period. The study was completed on Day 679 post ADV treatment. The patient was not on ADV treatment until the open label ADV was recommenced on Day 875 from the start of the initial ADV treatment. This second period of ADV treatment was given for 108 days (day 983 post initial ADV treatment). […] At Day 983, ADV treatment was stopped and the patient was treated with LMV.\n(§2) Patient B is a liver transplant patient. The patient has been on both sequential and combination antiviral therapy including HBIG, FCV+HBIG, LMV+HBIG, LMV, LMV+GCV, LMV+FCV+GCV, LMV+GCV and finally LMV+ADV. The patient has been on long term ADV+LMV treatment for over 795 days. Patient C, is a person. Prior to ADV treatment the patient had abnormal LFT's (ALT 240 IU/L, normal <55) and the HBV DNA was 2×10^7 copies/ml. ADV was commenced on Day 0 in a clinical trial on 10 mg/day for two years. The average ALT during the two year clinical trial period ws 114 IU/L. However, the ALT was rising and at 630 days after the start of ADV treatment the ALT remained high 407 IU/L. Open label ADV was commenced on Day 668 from the start of the initial ADV treatment. This second period of ADV treatment was given for […]. […] The peak ALT during open label ADV treatment was 517 IU/L (Day 738). The next day (Day 739), ADV treatment was stopped and the patient was treated with LMV.\nHepatitis B surface antigen (HBsAg), hepatitis B e antigen (HBeAg), anti-HBe and hepatitis B core antigen (HBcAg) specific IgG and IgM were measured using commercially available immunoassays (Abbott Laboratories, North Chicago, Ill., USA). Hepatitis B viral DNA levels were measured using a capture hybridization assay according to the manufacturer's directions (Digene Hybrid Capture II, Digene Diagnostics Inc., Beltsville, Md.). The manufacturers stated cut-off for detecting HBV viremia in clinical specimens was 0.7×10^6 copies/ml or 2.5 pg/ml, [Hendricks et al., Am J Clin Pathol 104: 537-46, 1995]. HBV DNA levels can also be quantitated using other commercial kits such as Cobas amplification HBV monitor kit (Roche)."}, "HBV [2]": {"tested_on": "HBV", "conditions": "phase II studies, 30 mg daily dose, over 12 weeks; cited from earlier work"}, "[3]": {"test": "ALT in patients on treatment", "format": "in vivo, human", "experimental": "as §1, §2"}, "HBV rt A181T/N236T/N238D": {"tested_on": "HBV rt A181T/N236T/N238D", "test": "In vitro drug susceptibility, recombinant HBV/baculovirus in HepG2 cells, rt A181T/N236T/N238D", "format": "cell-based, hepatitis B virus", "experimental": "(§3) The sensitivity/resistance profile of HBV mutants to ADV was examined in vitro using recombinant HBV/baculovirus. The procedure for analyzing the resistance profile is outlined in the following Examples 12-20.\n(§4) Sf21 insect cells were maintained in supplemented Grace's insect medium further supplemented with 10% v/v heat-inactivated fetal bovine serum (Gibco BRL, Gaithersburg, Md.) in humidified incubator at 28° C. with CO2. HepG2 cells were maintained in minimal essential medium supplemented with 10% v/v heat-inactivated fetal bovine serum (MEM-FBS). HepG2 cells were grown in humidified 37° C. incubators at 5% v/v CO2.\n(§5) The recombinant HBV/baculovirus system used for antiviral testing has been previously described (Delaney et al., Antimicrob Agents Chemother 45(6): 17054013, 2001). In brief, the recombinant transfer vector was created by excising a fragment containing the 1.3X HBV genome construct and cloning it into the multiple cloning region of a baculovirus vector pBlueBac4.5 (Invitrogen, Carlsbad, Calif.). Point mutations were created by site directed mutagenesis using the commercial kits according to the manufacturer's specifications (QuikChange, Stratagene). HBV/baculovirus recombinant clones encoding the reverse transcriptase mutations rtA181T/N236T/N238D and […] in combination with the precore mutation at G1896A (pcW28 stop) or wild-type with respect to codon pcW28, were prepared by site-directed mutagenesis. The nucleotide sequence of the plasmid and the point mutations generated by site directed mutagenesis were confirmed by sequencing using the ABI Prism Big Dye Terminator Cycle Sequencing Ready Reaction Kit according to the manufacturer's specifications (Perkin Elmer, Cetus Norwalk, Conn.).\nPurified recombinant transfer vector and linear AcMNPV baculovirus DNA were co-transfected into Sf21 cells using the BacNBlue transfection kit from Invitrogen (Carlsbad, Calif.); recombinant viruses were isolated by plaque assay according to the manufacturer's instructions. A series of recombinant viruses were amplified from isolated plaques by infecting 100-mm dishes of Sf21 cells. Viral DNA was extracted from amplified viruses using standard procedures. Purified viral DNA was digested with restriction enzymes and then fractionated by electrophoresis in a 1% […] agarose gel. Southern blotting was performed to determine which virus isolates contained the intact 1.3 HBV construct. A Boehringer Mannheim Random Prime DNA Labeling kit (Indianapolis, Ind.) was used to generate [P^32]-radiolabeled probes. A full-length double-stranded HBV genome was used as a template for all radiolabeled probes. […]"}, "HBV rt N236T/N238D": {"tested_on": "HBV rt N236T/N238D", "test": "In vitro drug susceptibility, recombinant HBV/baculovirus in HepG2 cells, rt N236T/N238D", "format": "cell-based, hepatitis B virus", "experimental": "as §3, §4\n(§6) The recombinant HBV/baculovirus system used for antiviral testing has been previously described (Delaney et al., Antimicrob Agents Chemother 45(6): 17054013, 2001). In brief, the recombinant transfer vector was created by excising a fragment containing the 1.3X HBV genome construct and cloning it into the multiple cloning region of a baculovirus vector pBlueBac4.5 (Invitrogen, Carlsbad, Calif.). […] The nucleotide sequence of the plasmid and the point mutations generated by site directed mutagenesis were confirmed by sequencing using the ABI Prism Big Dye Terminator Cycle Sequencing Ready Reaction Kit according to the manufacturer's specifications (Perkin Elmer, Cetus Norwalk, Conn.). […]"}, "HBV rt L180M/M204V": {"tested_on": "HBV rt L180M/M204V", "test": "In vitro drug susceptibility, recombinant HBV/baculovirus in HepG2 cells, rt L180M/M204V", "format": "cell-based, hepatitis B virus", "experimental": "as §3, §4, §6"}, "[4]": {"tested_on": "Wild-type (pPC) HBV reference laboratory strain (genotype D subtype ayw)", "test": "In vitro drug susceptibility, recombinant HBV/baculovirus in HepG2 cells, wild-type", "format": "cell-based, hepatitis B virus", "experimental": "as §3, §4, §5\nPurified recombinant transfer vector and linear AcMNPV baculovirus DNA were co-transfected into Sf21 cells using the BacNBlue transfection kit from Invitrogen (Carlsbad, Calif.); recombinant viruses were isolated by plaque assay according to the manufacturer's instructions. […]"}}, "data": [{"smiles": "CC(C)(C)C(=O)OCOP(=O)(COCCn1cnc2c(N)ncnc21)OCOC(=O)C(C)(C)C", "note": "[ADV, adefovir dipivoxil]", "values": [{"measurement": "HBV DNA levels", "setting": "HBV [1]; Patient A, ADV commenced Day 0, 30 mg/day", "result": "reduced"}, {"measurement": "HBV DNA copies/ml", "setting": "HBV [1]; Patient A, day 904 post-ADV treatment", "result": "1.55 × 10^6 copies/ml"}, {"measurement": "HBV DNA copies/ml", "setting": "HBV [1]; Patient A, day 932", "result": "2.97 × 10^6 copies/ml"}, {"measurement": "HBV DNA copies/ml", "setting": "HBV [1]; Patient A, day 959", "result": "1.76 × 10^6 copies/ml"}, {"measurement": "HBV DNA copies/ml", "setting": "HBV [1]; Patient A, day 983 (end ADV)", "result": "1.64 × 10^6 copies/ml"}, {"measurement": "HBV DNA copies/ml", "setting": "HBV [1]; Patient C, day 701", "result": "1.5 × 10^7 copies/ml"}, {"measurement": "HBV DNA copies/ml", "setting": "HBV [1]; Patient C, day 730", "result": "3.7 × 10^6 copies/ml"}, {"measurement": "mean decrease in viremia", "setting": "HBV [2]", "result": 4, "unit": "log10"}, {"measurement": "ALT", "setting": "[3]; Patient A, open label ADV, day 983 (end ADV)", "result": 65, "unit": "IU/L"}, {"measurement": "ALT", "setting": "[3]; Patient C, ADV 10 mg/day clinical trial, day 29", "result": 160, "unit": "IU/L"}, {"measurement": "ALT", "setting": "[3]; Patient C, ADV 10 mg/day clinical trial, day 630", "result": 407, "unit": "IU/L"}, {"measurement": "ALT", "setting": "[3]; Patient C, open label ADV, day 701", "result": 226, "unit": "IU/L"}, {"measurement": "ALT", "setting": "[3]; Patient C, open label ADV, day 730", "result": 361, "unit": "IU/L"}, {"measurement": "ALT (peak during open label ADV)", "setting": "[3]; Patient C, open label ADV, day 738", "result": 517, "unit": "IU/L"}, {"measurement": "average ALT", "setting": "[3]; Patient C, two year clinical trial period, ADV 10 mg/day", "result": 114, "unit": "IU/L"}, {"measurement": "fold increase in IC50", "setting": "HBV rt A181T/N236T/N238D; rtA181T also present (triple mutant), readout not stated", "result": "five"}, {"measurement": "fold increase in IC50", "setting": "HBV rt N236T/N238D; rt N236T/N238D mutation, readout not stated", "result": "twenty-three"}]}, {"smiles": "Nc1ncnc2c1ncn2CCOCP(=O)(O)O", "note": "[Adefovir, 9-[phosphonyl-methoxyethyl]-adenine]", "values": [{"measurement": "In vitro Susceptibility IC50 (fold change from wild-type), Southern Blot", "setting": "HBV rt L180M/M204V", "result": 0.9, "unit": "fold"}, {"measurement": "In vitro Susceptibility IC50 (fold change from wild-type), Real-time PCR", "setting": "[4]; Real-time PCR", "result": 1, "unit": "fold"}, {"measurement": "In vitro Susceptibility IC50 (fold change from wild-type), Southern Blot", "setting": "[4]", "result": 1, "unit": "fold"}, {"measurement": "In vitro Susceptibility IC50 (fold change from wild-type), Real-time PCR", "setting": "HBV rt A181T/N236T/N238D; Real-time PCR, rt A181T/N236T/N238D", "result": 5.1, "unit": "fold"}, {"measurement": "In vitro Susceptibility IC50 (fold change from wild-type), Southern Blot", "setting": "HBV rt A181T/N236T/N238D; rt A181T/N236T/N238D", "result": 7.3, "unit": "fold"}, {"measurement": "In vitro Susceptibility IC50 (fold change from wild-type), Real-time PCR", "setting": "HBV rt N236T/N238D; Real-time PCR, rt N236T/N238D", "result": 23, "unit": "fold"}]}, {"smiles": "Nc1ccn([C@@H]2CS[C@H](CO)O2)c(=O)n1", "note": "[Lamivudine, (-)-β-2'-deoxy-3'-thiacytidine]", "values": [{"measurement": "In vitro Susceptibility IC50 (fold change from wild-type), Southern Blot", "setting": "HBV rt L180M/M204V", "result": ">2500", "unit": "fold"}, {"measurement": "ALT", "setting": "[3]; Patient B, day -8 (S6), pre-ADV on LMV", "result": 427, "unit": "IU/L"}, {"measurement": "In vitro Susceptibility IC50 (fold change from wild-type), Southern Blot", "setting": "[4]", "result": 1, "unit": "fold"}, {"measurement": "In vitro Susceptibility IC50 (fold change from wild-type), Southern Blot", "setting": "HBV rt A181T/N236T/N238D; rt A181T/N236T/N238D", "result": ">100", "unit": "fold"}]}]}
